{"source": "paper PMC4302242", "about": "(Psychopharmacology, 2014)", "key": {"human TREK-1 channel [1]": {"molecular_target": "T1, human TREK-1 channel (Homo sapiens, UniProt O95069)", "T1 sequence (O95069 whole entry)": "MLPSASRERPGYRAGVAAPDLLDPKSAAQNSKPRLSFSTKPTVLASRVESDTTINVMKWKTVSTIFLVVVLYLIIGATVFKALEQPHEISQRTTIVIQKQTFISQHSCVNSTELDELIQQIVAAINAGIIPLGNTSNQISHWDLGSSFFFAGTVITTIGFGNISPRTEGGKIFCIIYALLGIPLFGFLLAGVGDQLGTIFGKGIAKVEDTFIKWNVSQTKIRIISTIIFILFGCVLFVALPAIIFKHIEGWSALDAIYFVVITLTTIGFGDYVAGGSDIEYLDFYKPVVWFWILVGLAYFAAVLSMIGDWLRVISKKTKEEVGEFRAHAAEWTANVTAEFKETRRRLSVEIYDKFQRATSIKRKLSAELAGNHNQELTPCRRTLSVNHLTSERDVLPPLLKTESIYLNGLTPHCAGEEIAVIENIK", "details": "h-TREK-1/HEK cells, current at 0 mV, n = 10 to 12", "procedure": "(§1) The human-TREK-1/HEK293 cell line (h-TREK-1/HEK) (Moha ou Maati et al. [2011a]) and HEK-IKS cell line (Ducroq et al. [2010]) were grown in the presence of 0.5 mg/mL G418 in Dulbecco’s modified Eagle’s medium supplemented with 10 % (v/v) heat-inactivated fetal bovine serum containing 1 % (v/v) penicillin/streptomycin in an atmosphere of 95 % air/5 % CO2 as previously described (Moha ou Maati et al. [2011a]).\n(§2) All electrophysiological experiments were performed on h-TREK-1/HEK cells seeded at a density of 20,000 cells/35 mm dish after 2–6 days of culture. All electrophysiological recordings were performed in whole cell configuration of the patch clamp technique except for IKS measures which were obtained by using the patch clamp perforated configuration (amphotericin B 0.9 mg/mL in the pipette medium) (Moha ou Maati et al. [2011b]). Each current was evaluated by using a RK 400 patch clamp amplifier (Axon Instrument, USA), low-pass filtered at 3 kHz, and digitized at 10 kHz using a 12-bit analog-to-digital converter digidata (1322 series, Axon Instrument, USA). All current amplitudes are expressed in current densities. Results are expressed as mean ± standard error of the mean (SEM). […] The bath solution contained (in mM) 150 NaCl, 5 KCl, 3 MgCl2, 1 CaCl2, and 10 4-(2-hydroxyethyl)piperazine 1- ethane sulfonic acid (HEPES) adjusted to pH 7.4 with NaOH. The pipette solution contained (in mM) 155 KCl, 3 MgCl2, 5 EGTA, and 10 HEPES adjusted to pH 7.2 with KOH. TREK-1 currents were evaluated at room temperature (21–22 °C) in the presence of a cocktail of potassium channel inhibitors (K^+ blockers, 3 mM 4-aminopyridine (4-AP), 10 mM tetraethylammonium (TEA), 10 μM glibenclamide, 100 nM apamin, and 50 nM charybdotoxin). Stimulation protocols and data acquisition were carried out using a microcomputer (Dell Pentium) with a commercial software and hardware (pClamp 8.2). Currents were recorded by voltage clamp steps to membrane potentials of −100 to +60 mV in 20-mV steps applied from a holding potential of −80 mV. The duration of depolarization pulses was 825 ms, and the pulse cycling rate was 5 s. TREK-1 current amplitudes were evaluated at the end of stimulation pulses. Cells were continuously superfused with microperfusion system.\n(§3) All experiments were performed on h-TREK-1/HEK cell line in the presence of a mixture of K^+ channels blockers and by using the whole cell configuration of the patch clamp technique. a Control currents (black-filled circles, K^+ blockers) were amplified by the application of 10 μM of arachidonic acid (white-filled circles, K^+ blockers + AA)."}, "C57Bl/6J mice [2]": {"test_system": "C57Bl/6J mice", "details": "for FST immobility time, subchronic treatment: 10 μg/kg i.v. once a day for 4 days, test on day 5, mean ± SEM, saline 161.80 ± 8.12 s; for FST immobility time, acute treatment: 10 μg/kg single i.v. bolus, 30 min before the test, saline 166.13 ± 5.54 s; for FST immobility time, acute treatment / FST immobility time 1 h after injection (action duration): n = 10, mean ± SEM; for FST immobility time 1 h after injection (action duration): naïve mice at each time; for FST immobility time 1 h after injection (action duration) / FST immobility time 16 h after injection (action duration): saline 170.3 ± 4.5 s (spadin series), 162.7 ± 4.7 s (analog series); for FST immobility time 16 h after injection (action duration): naïve mice, mean ± SEM", "procedure": "Naïve male C57Bl/6J mice from 7 to 9 weeks old were used in all experiments (Janvier Laboratory, Saint Berthevin, France). Mice were housed (10 animals per cage) under a 12:12 light–dark cycle (light on at 8:00 am) in a ventilated room at a temperature of 22 ± 1 °C. Animals had free access to water and food (A03; SAFE, Augy, France). All experiments were conducted according to policies on the care and use of laboratory animals of the Society for Neuroscience and also with respect to national laws on animal use.\n(§4) For acute treatment, drugs were administered in a single 100-μL bolus 30 min prior to the beginning of the behavioral tests. For subchronic treatment, drugs were injected during four consecutive days, and behavioral tests were performed on day 5, without additional injection.\nThe animals were individually placed in a non-escapable cylinder (height 30 cm, diameter 15 cm) filled with 15-cm water at 22 ± 1 °C. The trial was conducted for 6 min. The total period of immobility was manually measured during the last 4 min of the test. A mouse was considered immobile when it remained floating with only slight movements to keep its head above water."}, "C57Bl/6J mice [3]": {"test_system": "C57Bl/6J mice", "details": "10 μg/kg i.v. once a day for 4 days, test on day 5, mean ± SEM; saline 305.00 ± 62.47 s", "procedure": "Naïve male C57Bl/6J mice from 7 to 9 weeks old were used in all experiments (Janvier Laboratory, Saint Berthevin, France). Mice were housed (10 animals per cage) under a 12:12 light–dark cycle (light on at 8:00 am) in a ventilated room at a temperature of 22 ± 1 °C. Animals had free access to water and food (A03; SAFE, Augy, France).\nas §4\nThe NSF paradigm is a 2-day test protocol. On day 1, mice were deprived from food. On day 2, mice were placed in a highly brightly lit area, in a plastic box (45 × 45 × 20 cm), with a floor covered with wooden bedding. The test was carried out during a 10-min period. During this time, the latency to eat was measured. During the test, a single pellet of food was placed in the center of the box, on a white platform."}, "C57Bl/6J mice [4]": {"test_system": "C57Bl/6J mice", "details": "10^-5 M in 100 μL bolus i.v. 30 min before the test, monitored 24 h, n = 8 per group", "procedure": "Locomotor activity was monitored individually for 24 h using an infrared photobeam activity monitoring system (Imetronic, Pessac, France), which measured consecutive horizontal beam breaks. […] Locomotor activity was defined as breaking of consecutive photobeams. Movements were recorded and totalized for each 10-min time section. Six periods were pooled to obtain data for 1 h of time. Different movements were monitored: the coming-and-going between the back and the front of the cage, climbing, and other movements in the back or the front of the cage. Mice were kept under standard laboratory conditions: 12:12 light–dark cycle with free access to food and water during the experiment.\nMice were injected 30 min before to be placed in an infrared photobeam activity monitoring system. Spontaneous locomotor activity was monitored individually for 24 consecutive hours. The number of coming-and-going (a), climbing (b), and total movements except climbing (c) were monitored for each mouse for 10 min section and pooled by 6 to obtain values corresponding to 1 h."}, "C57Bl/6J mice [5]": {"test_system": "C57Bl/6J mice", "details": "water bath 48 °C, 10 μg/kg i.v. 30 min before the test, n = 10 per group, two determinations averaged, mean ± SEM; saline 12.75 ± 0.96 s", "procedure": "The tail was immersed in a water bath at 48 °C until withdrawal was observed (cutoff time 30 s). Two separate withdrawal latency time determinations were averaged (Alloui et al. [2006]).\nFor each mouse, the time to withdraw its tail immersed in a water bath at 48 °C was measured twice and averaged."}, "C57Bl/6J mice [6]": {"test_system": "C57Bl/6J mice", "details": "kaïnate 25 mg/kg i.p.", "procedure": "Kaïnate solutions were prepared in a solution of 140 mM NaCl (saline solution).\nMice (n = 10 per group) were monitored during 2 h for onset and extent of seizures. Six levels of seizure severity were defined: (1) immobility, (2) head/neck movements, (3) clonic unilateral activity, (4) clonic bilateral activity, (5) generalized convulsions, and (6) death. Seizure severity was blindly scored (Tsirka et al. [1995]). The seizure index was calculated by averaging the points for seizure activity in each group (n = 10 per treatment)."}, "hERG channel (IKR)": {"molecular_target": "hERG channel (IKR) (Homo sapiens, UniProt Q12809)", "sequence (Q12809 whole entry)": "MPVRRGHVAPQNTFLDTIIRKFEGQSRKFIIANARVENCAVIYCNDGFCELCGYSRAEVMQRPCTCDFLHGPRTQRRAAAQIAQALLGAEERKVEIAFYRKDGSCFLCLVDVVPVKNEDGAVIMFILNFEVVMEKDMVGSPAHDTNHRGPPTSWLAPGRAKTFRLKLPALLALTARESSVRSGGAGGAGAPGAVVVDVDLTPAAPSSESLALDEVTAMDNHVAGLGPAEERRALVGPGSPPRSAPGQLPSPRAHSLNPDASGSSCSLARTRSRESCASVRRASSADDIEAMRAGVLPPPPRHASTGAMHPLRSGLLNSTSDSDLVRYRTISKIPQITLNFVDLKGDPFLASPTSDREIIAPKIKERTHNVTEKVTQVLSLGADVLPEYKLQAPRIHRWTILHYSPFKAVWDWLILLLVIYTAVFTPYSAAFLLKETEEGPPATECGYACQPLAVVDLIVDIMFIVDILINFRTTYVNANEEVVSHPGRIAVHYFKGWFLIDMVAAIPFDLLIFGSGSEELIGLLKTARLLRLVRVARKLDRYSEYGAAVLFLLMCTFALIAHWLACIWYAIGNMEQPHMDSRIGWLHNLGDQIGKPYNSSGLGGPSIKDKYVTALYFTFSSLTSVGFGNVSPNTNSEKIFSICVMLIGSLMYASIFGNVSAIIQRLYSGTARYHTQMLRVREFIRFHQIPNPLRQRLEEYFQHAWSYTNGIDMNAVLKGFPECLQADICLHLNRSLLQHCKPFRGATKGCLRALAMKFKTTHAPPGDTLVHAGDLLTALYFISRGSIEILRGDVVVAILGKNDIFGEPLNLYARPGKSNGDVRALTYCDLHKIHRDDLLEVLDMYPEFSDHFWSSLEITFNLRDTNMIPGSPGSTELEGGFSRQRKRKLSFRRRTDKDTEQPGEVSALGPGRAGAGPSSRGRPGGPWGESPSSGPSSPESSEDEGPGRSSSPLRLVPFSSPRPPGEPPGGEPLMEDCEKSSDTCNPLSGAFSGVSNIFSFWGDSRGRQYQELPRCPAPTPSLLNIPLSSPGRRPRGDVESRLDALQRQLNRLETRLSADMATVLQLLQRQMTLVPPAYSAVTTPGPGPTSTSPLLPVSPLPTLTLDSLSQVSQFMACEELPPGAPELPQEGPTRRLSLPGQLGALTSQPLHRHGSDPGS", "details": "10 μM", "procedure": "HEK-293 native cells were grown in serum in an atmosphere of 95 % air/5 % CO2 in Dulbecco’s modified Eagle’s medium supplemented with 10 % (v/v) heat-inactivated fetal bovine containing 1 % (v/v) of penicillin/ streptomycin and Glutamax X 1. Cells were plated at a density of 20,000 cells/35 mm dish, and after 24 h, cells were transfected using the Jet PEI method (Polyplus, France) with 25 ng/35 mm dish of p-IRES-HERG channel vector. Patch clamp experiments were carried out 48 h after transfection.\nAll electrophysiological recordings were performed in whole cell configuration of the patch clamp technique except for IKS measures which were obtained by using the patch clamp perforated configuration (amphotericin B 0.9 mg/mL in the pipette medium) (Moha ou Maati et al. [2011b]). Each current was evaluated by using a RK 400 patch clamp amplifier (Axon Instrument, USA), low-pass filtered at 3 kHz, and digitized at 10 kHz using a 12-bit analog-to-digital converter digidata (1322 series, Axon Instrument, USA). All current amplitudes are expressed in current densities. Results are expressed as mean ± standard error of the mean (SEM). […] The bath solution contained (in mM) 150 NaCl, 5 KCl, 3 MgCl2, 1 CaCl2, and 10 4-(2-hydroxyethyl)piperazine 1- ethane sulfonic acid (HEPES) adjusted to pH 7.4 with NaOH. The pipette solution contained (in mM) 155 KCl, 3 MgCl2, 5 EGTA, and 10 HEPES adjusted to pH 7.2 with KOH. […] Stimulation protocols and data acquisition were carried out using a microcomputer (Dell Pentium) with a commercial software and hardware (pClamp 8.2). Currents were recorded by voltage clamp steps to membrane potentials of −100 to +60 mV in 20-mV steps applied from a holding potential of −80 mV. The duration of depolarization pulses was 825 ms, and the pulse cycling rate was 5 s. […] Cells were continuously superfused with microperfusion system.\nTail currents were generated by repolarization to −40 mV. […] The amplitudes of IKS and IKR currents were calculated at both the end of the first pulse and the peak of the tail pulse."}, "human-IKS current": {"molecular_target": "human-IKS current (Homo sapiens, UniProt P51787)", "sequence (P51787 whole entry)": "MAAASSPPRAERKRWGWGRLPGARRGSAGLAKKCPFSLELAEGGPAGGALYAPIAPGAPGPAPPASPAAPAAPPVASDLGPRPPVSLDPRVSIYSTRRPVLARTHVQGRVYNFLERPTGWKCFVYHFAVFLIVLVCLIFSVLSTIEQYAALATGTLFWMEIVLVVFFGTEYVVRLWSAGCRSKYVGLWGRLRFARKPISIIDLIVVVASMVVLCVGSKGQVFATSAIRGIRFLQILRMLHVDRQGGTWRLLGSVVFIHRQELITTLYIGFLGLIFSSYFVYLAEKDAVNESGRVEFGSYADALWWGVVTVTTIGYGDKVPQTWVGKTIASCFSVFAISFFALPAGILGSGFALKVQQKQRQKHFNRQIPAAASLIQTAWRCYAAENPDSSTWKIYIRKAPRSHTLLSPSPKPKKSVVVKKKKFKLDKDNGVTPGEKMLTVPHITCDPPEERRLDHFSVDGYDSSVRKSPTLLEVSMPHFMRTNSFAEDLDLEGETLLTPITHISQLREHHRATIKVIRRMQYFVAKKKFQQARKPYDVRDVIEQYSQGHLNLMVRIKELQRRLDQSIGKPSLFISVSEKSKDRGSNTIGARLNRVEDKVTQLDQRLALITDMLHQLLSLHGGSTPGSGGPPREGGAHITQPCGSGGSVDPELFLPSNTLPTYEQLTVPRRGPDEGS", "details": "10 μM", "procedure": "as §1\nAll electrophysiological recordings were performed in whole cell configuration of the patch clamp technique except for IKS measures which were obtained by using the patch clamp perforated configuration (amphotericin B 0.9 mg/mL in the pipette medium) (Moha ou Maati et al. [2011b]). Each current was evaluated by using a RK 400 patch clamp amplifier (Axon Instrument, USA), low-pass filtered at 3 kHz, and digitized at 10 kHz using a 12-bit analog-to-digital converter digidata (1322 series, Axon Instrument, USA). All current amplitudes are expressed in current densities. Results are expressed as mean ± standard error of the mean (SEM). […] The bath solution contained (in mM) 150 NaCl, 5 KCl, 3 MgCl2, 1 CaCl2, and 10 4-(2-hydroxyethyl)piperazine 1- ethane sulfonic acid (HEPES) adjusted to pH 7.4 with NaOH. The pipette solution contained (in mM) 155 KCl, 3 MgCl2, 5 EGTA, and 10 HEPES adjusted to pH 7.2 with KOH. […] Stimulation protocols and data acquisition were carried out using a microcomputer (Dell Pentium) with a commercial software and hardware (pClamp 8.2). […] Cells were continuously superfused with microperfusion system.\nIKS currents were activated by voltage clamp steps of membrane potentials from −100 to +100 mV in 20-mV steps applied from a holding potential of −80 mV. Tail currents were generated by repolarization to −40 mV. Duration of both depolarization and repolarization pulses was 2.4 s, and the pulse cycling rate was 10 s. […] The amplitudes of IKS and IKR currents were calculated at both the end of the first pulse and the peak of the tail pulse."}, "human TREK-1 channel [7]": {"molecular_target": "T1, human TREK-1 channel", "assay": "cell-based", "procedure": "as §1, §2, §3"}, "C57Bl/6J mice [8]": {"test_system": "C57Bl/6J mice", "details": "10 μg/kg i.v. for four consecutive days, hippocampal dentate gyrus", "procedure": "One day after 5-bromo-2′-deoxyuridine (BrdU) injections, 12 mg per animal divided in four bolus of 300 μL injected every 2 h, mice were anesthetized with isoflurane and transcardially perfused with 20 mL of NaCl 0.9 % followed by 20 mL paraformaldehyde 4 %/NaCl 0.9 %. By using a vibratome (Leica), brains were cut into 40-μm sections, throughout the entire hippocampus. […] For each BrdU labeling, slices were first incubated with a mouse monoclonal anti-BrdU antibody (1/8,000, Becton Dickinson). For chromogenic immunodetection, sections were incubated during 2 h in biotin-conjugated species-specific secondary antibodies (1/400; Vector laboratories) followed by a peroxidase-avidin complex solution, to amplify the reaction. The peroxidase activity of immune complex was visualized with DAB staining using the VectaStain ABC kit according to the manufacturer’s protocol (Vector Laboratories)."}}, "note": "Non-standard residues stand in square brackets, D forms with d. Residues, ends and D or L forms follow the SMILES beside them.", "data": [{"compound": "CC[C@@H](C)[C@@H](NC(=O)CNC(=O)[C@H](NC(=O)[C@@H](CO)NC(=O)[C@@H](Cc1c[nH]c2ccccc12)NC(=O)CNC(=O)[C@@H](CC(C)C)NC(=O)[C@@H](CCCNC(=N)N)NC(C)=O)C(C)C)C(=O)N1CCC[C@@H]1C(=O)NCC(=O)N[C@H](CO)C(=O)N[C@H](Cc1c[nH]c2ccccc12)C(=O)N[C@H](CCCNC(=N)N)C(=O)N1CCC[C@@H]1C(=O)N[C@H](CC(C)C)C(=O)N1CCC[C@@H]1C(=O)N[C@H](C)C(N)=O", "note": "[analog 3] (Ac-[dR][dL]G[dW][dS][dV]G[dI][dP]G[dS][dW][dR][dP][dL][dP][dA]-NH2)", "values": [{"measurement": "TREK-1 blockade at 100 nM compared with spadin (in words)", "setting": "human TREK-1 channel [1]", "result": "increased blockade effect when compared to spadin"}, {"measurement": "FST immobility time, subchronic treatment", "setting": "C57Bl/6J mice [2]", "result": "114.9 ± 9.82", "unit": "s"}, {"measurement": "FST immobility time, acute treatment", "setting": "C57Bl/6J mice [2]", "result": "135.10 ± 8.11", "unit": "s"}, {"measurement": "FST immobility time 1 h after injection (action duration)", "setting": "C57Bl/6J mice [2]", "result": "123.4 ± 7.0", "unit": "s"}, {"measurement": "FST immobility time 16 h after injection (action duration)", "setting": "C57Bl/6J mice [2]", "result": "129.6 ± 12.7", "unit": "s"}, {"measurement": "NSF latency to feed, subchronic treatment", "setting": "C57Bl/6J mice [3]", "result": "143.88 ± 23.42", "unit": "s"}, {"measurement": "Locomotor activity versus saline-treated mice (coming-and-going, climbing, total movements)", "setting": "C57Bl/6J mice [4]", "result": "no significant difference"}, {"measurement": "Amount recovered in a half brain", "setting": "10 nmol i.v. (100 μL of 100 μM, caudal vein), 30 min after injection, acidic extraction, RP18 HPLC, standard curve 50-200 pmol, estimated", "result": "~100", "unit": "pmol"}, {"measurement": "Yield to cross the blood-brain-barrier", "setting": "10 nmol i.v., 30 min after injection, amount per brain relative to injected amount", "result": "~2", "unit": "%"}, {"measurement": "Amount recovered per brain", "setting": "10 nmol i.v., 30 min after injection, extrapolated from a half brain", "result": "~200", "unit": "pmol"}, {"measurement": "HPLC peak in brain extract 60 min after injection", "setting": "10 nmol i.v., 60 min after injection", "result": "disappeared after 60 min"}, {"measurement": "Tail withdrawal time", "setting": "C57Bl/6J mice [5]", "result": "11.32 ± 1.04", "unit": "s"}, {"measurement": "Effect on kaïnate-triggered seizures, 1 μg/kg", "setting": "C57Bl/6J mice [6]; 1 μg/kg i.v., n = 10", "result": "no protective effect"}, {"measurement": "Effect on kaïnate-triggered seizures, 10 μg/kg", "setting": "C57Bl/6J mice [6]; 10 μg/kg i.v., n = 10, monitored 2 h", "result": "important protective effect"}, {"measurement": "Number of mice reaching the two less severe seizure stages (immobility, head or neck movements)", "setting": "C57Bl/6J mice [6]; 10 μg/kg i.v., n = 10, saline: at least 9 among 10, five died", "result": "two mice among 10"}, {"measurement": "Effect on IKR current", "setting": "hERG channel (IKR); HEK cells expressing hERG", "result": "did not modify currents"}, {"measurement": "IKR tail current density at 0 mV in the presence of the analog", "setting": "hERG channel (IKR); n = 5, mean ± SEM, control 204.59 ± 34.18 pA/pF", "result": "212.99 ± 38.38", "unit": "pA/pF"}, {"measurement": "IKR current density at 0 mV, end of first pulse, in the presence of the analog", "setting": "hERG channel (IKR); n = 5, mean ± SEM, control 225.14 ± 33.09 pA/pF", "result": "224.48 ± 35.94", "unit": "pA/pF"}, {"measurement": "Effect on IKS current", "setting": "human-IKS current; HEK-IKS cells", "result": "did not modify currents"}, {"measurement": "IKS tail current density at 0 mV in the presence of the analog", "setting": "human-IKS current; n = 5, mean ± SEM, control 8.33 ± 1.78 pA/pF", "result": "8.33 ± 2.06", "unit": "pA/pF"}, {"measurement": "IKS current density at 0 mV, end of pulse, in the presence of the analog", "setting": "human-IKS current; n = 5, mean ± SEM, control 17.65 ± 3.84 pA/pF", "result": "17.58 ± 4.03", "unit": "pA/pF"}, {"measurement": "IC50", "setting": "human TREK-1 channel [7]", "result": "11.5 ± 0.59", "unit": "nM"}]}, {"compound": "Ac-APPPPAAPLPRWSGPIGVSWGLR-NH2 [analog 9]", "values": [{"measurement": "TREK-1 blockade at 100 nM compared with spadin (in words)", "setting": "human TREK-1 channel [1]", "result": "inhibitory effect close to that of spadin"}]}, {"compound": "CC[C@H](C)[C@H](NC(=O)[C@@H]1CCCN1C(=O)CNC(=O)[C@H](CO)NC(=O)[C@H](Cc1c[nH]c2ccccc12)NC(=O)[C@H](CCCNC(=N)N)NC(=O)[C@@H]1CCCN1C(=O)[C@H](CC(C)C)NC(=O)[C@@H]1CCCN1C(=O)[C@H](C)NC(=O)[C@H](C)NC(=O)[C@@H]1CCCN1C(=O)[C@@H]1CCCN1C(=O)[C@@H]1CCCN1C(=O)[C@@H]1CCCN1C(=O)[C@H](C)NC(=O)[C@H](CC(=O)O)NC(=O)[C@H](CC(C)C)NC(=O)[C@H](CCCNC(=N)N)NC(=O)[C@H](CC(=O)O)NC(=O)[C@H](CCC(N)=O)NC(C)=O)C(=O)NCC(=O)N[C@H](C(=O)N[C@@H](CO)C(=O)N[C@@H](Cc1c[nH]c2ccccc12)C(=O)NCC(=O)N[C@@H](CC(C)C)C(=O)N[C@@H](CCCNC(=N)N)C(N)=O)C(C)C", "note": "[analog 7]", "values": [{"measurement": "TREK-1 blockade at 100 nM compared with spadin (in words)", "setting": "human TREK-1 channel [1]", "result": "bad inhibitor of TREK-1 channels"}]}, {"compound": "Ac-QDRLDAPPPPAAPLPRWSGPIGVSWGLRAAAAGGAFPRGGRWRR-NH2 [analog 11]", "values": [{"measurement": "TREK-1 blockade at 100 nM compared with spadin (in words)", "setting": "human TREK-1 channel [1]", "result": "reduced blocking effect on TREK-1 channels"}]}, {"compound": "spadin [reference compound]", "values": [{"measurement": "FST immobility time, subchronic treatment", "setting": "C57Bl/6J mice [2]", "result": "123.70 ± 7.16", "unit": "s"}, {"measurement": "FST immobility time, acute treatment", "setting": "C57Bl/6J mice [2]", "result": "107.40 ± 5.05", "unit": "s"}, {"measurement": "FST immobility time 1 h after injection (action duration)", "setting": "C57Bl/6J mice [2]", "result": "102.4 ± 6.2", "unit": "s"}, {"measurement": "FST immobility time 3 h after injection (action duration)", "setting": "C57Bl/6J mice [2]; 3 h after injection (order of values follows order of times), saline 170.3 ± 4.5 s", "result": "113.2 ± 5.0", "unit": "s"}, {"measurement": "FST immobility time 7 h after injection (action duration)", "setting": "C57Bl/6J mice [2]; 7 h after injection (order of values follows order of times), saline 170.3 ± 4.5 s", "result": "150.8 ± 6.5", "unit": "s"}, {"measurement": "FST immobility time 16 h after injection (action duration)", "setting": "C57Bl/6J mice [2]", "result": "175.3 ± 7.5", "unit": "s"}, {"measurement": "Biological half-life time measured by the FST", "setting": "C57Bl/6J mice [2]; from loss of FST efficacy with time after injection", "result": "around 6 h"}, {"measurement": "NSF latency to feed, subchronic treatment", "setting": "C57Bl/6J mice [3]", "result": "151.11 ± 17.70", "unit": "s"}, {"measurement": "Increase of the number of BrdU-positive cells in SGZ versus saline (factor)", "setting": "C57Bl/6J mice [8]", "result": "≥ 2"}]}, {"compound": "Ac-APLPRWSGPIGVSWGLR-NH2 [analog 2]", "values": [{"measurement": "IC50", "setting": "human TREK-1 channel [7]", "result": "60 ± 0.41", "unit": "nM"}]}, {"compound": "Ac-[dR][dR][dW][dR]GG[dR][dP][dF][dA]GG[dA][dA][dA][dA][dR][dL]G[dW][dS][dV]G[dI][dP]G[dS][dW][dR][dP][dL][dP][dA][dA][dP][dP][dP][dP][dA][dD][dL][dR][dD][dQ]-NH2 [analog 12]", "values": [{"measurement": "TREK-1 blockade at 100 nM compared with spadin (in words)", "setting": "human TREK-1 channel [1]", "result": "did not display a better efficacy"}]}, {"compound": "CC[C@@H](C)[C@@H](NC(=O)CNC(=O)[C@H](NC(=O)[C@@H](CO)NC(=O)[C@@H](Cc1c[nH]c2ccccc12)NC(=O)CNC(=O)[C@@H](CC(C)C)NC(=O)[C@@H](CCCNC(=N)N)NC(C)=O)C(C)C)C(=O)N1CCC[C@@H]1C(=O)NCC(=O)N[C@H](CO)C(=O)N[C@H](Cc1c[nH]c2ccccc12)C(=O)N[C@H](CCCNC(=N)N)C(=O)N1CCC[C@@H]1C(=O)N[C@H](CC(C)C)C(=O)N1CCC[C@@H]1C(=O)N[C@H](C)C(=O)N[C@H](C)C(=O)N1CCC[C@@H]1C(=O)N1CCC[C@@H]1C(=O)N1CCC[C@@H]1C(=O)N1CCC[C@@H]1C(=O)N[C@H](C)C(=O)N[C@H](CC(=O)O)C(=O)N[C@H](CC(C)C)C(=O)N[C@H](CCCNC(=N)N)C(=O)N[C@H](CC(=O)O)C(=O)N[C@H](CCC(N)=O)C(N)=O", "note": "[analog 8] (Ac-[dR][dL]G[dW][dS][dV]G[dI][dP]G[dS][dW][dR][dP][dL][dP][dA][dA][dP][dP][dP][dP][dA][dD][dL][dR][dD][dQ]-NH2)", "values": [{"measurement": "TREK-1 blockade at 100 nM compared with spadin (in words)", "setting": "human TREK-1 channel [1]", "result": "increased blockade effect when compared to spadin"}, {"measurement": "FST immobility time, subchronic treatment", "setting": "C57Bl/6J mice [2]", "result": "124.1 ± 10.53", "unit": "s"}, {"measurement": "FST immobility time, acute treatment", "setting": "C57Bl/6J mice [2]", "result": "83.60 ± 9.01", "unit": "s"}, {"measurement": "FST immobility time 1 h after injection (action duration)", "setting": "C57Bl/6J mice [2]", "result": "121.7 ± 5.2", "unit": "s"}, {"measurement": "FST immobility time 16 h after injection (action duration)", "setting": "C57Bl/6J mice [2]", "result": "129.1 ± 12.0", "unit": "s"}, {"measurement": "NSF latency to feed, subchronic treatment", "setting": "C57Bl/6J mice [3]", "result": "167.00 ± 22.96", "unit": "s"}, {"measurement": "Tail withdrawal time", "setting": "C57Bl/6J mice [5]", "result": "13.85 ± 0.72", "unit": "s"}, {"measurement": "IC50", "setting": "human TREK-1 channel [7]", "result": "9.95 ± 0.85", "unit": "nM"}]}]}
